Results published in patent publication EP2369000A1, “Production of peptides and proteins by accumulation in mitochondria” (3T-Science, S.L., priority 2010, dated 2011).

system: internal mitochondrial proteases; test: MALDI-TOF-TOF sequence confirmation of MTS cleavage; set-up: species or system Kluyveromyces lactis; settings: RFP sequence (1-9) VSKGEELIK; position 1-9
Description: The enriched sample was analysed on a 15% SDS-PAGE gel and stained with Coomassie blue. After de-staining the gel a piece of the SDS-PAGE gel was cut at the position where the RFP was expected. This was washed extensively in water and analysed by MALDI-TOF-TOF analysis after trypsin digestion. […]

**Q.** “MIS-VII: synthetic mitochondrial targeting sequence (MTS), SEQ ID NO: 2, containing the core RRRA (RLRRRAARSLARSAARR)” was tested. Which Peptide detected did it give?
**A.** The Peptide detected was “VSKGEELIK”.

**Q.** Which Peptide detected does the source give for “MIS-XIII: synthetic mitochondrial targeting sequence (MTS), SEQ ID NO: 3, containing the core RRRA (RAARRRAARR)” here?
**A.** Its Peptide detected is “VSKGEELIK”.

**Q.** Which Peptide detected does the source give for “MIS-XIV: synthetic mitochondrial targeting sequence (MTS), SEQ ID NO: 4, containing the core RRRA (RARRRARR)” here?
**A.** The Peptide detected was “VSKGEELIK”.

same assay, conditions: enriched sample, gel piece, trypsin digestion

**Q.** With “MIS-VII: synthetic mitochondrial targeting sequence (MTS), SEQ ID NO: 2, containing the core RRRA (RLRRRAARSLARSAARR)” as the substance, how does the “cleavage of the MTS” value read?
**A.** The value was “cleavage was correct”.

**Q.** How did the “cleavage of the MTS” value turn out when “MIS-XIII: synthetic mitochondrial targeting sequence (MTS), SEQ ID NO: 3, containing the core RRRA (RAARRRAARR)” was run?
**A.** The value was “cleavage was correct”.

**Q.** How did the “cleavage of the MTS” value turn out when “MIS-XIV: synthetic mitochondrial targeting sequence (MTS), SEQ ID NO: 4, containing the core RRRA (RARRRARR)” was run?
**A.** The value was “cleavage was correct”.
